Data from US6737383B1, “Herbicidal oxadiazolidines” (priority 1999, dated 2004).

How the values were obtained:
corn = experiment: Test B pre/postemergence corn; type: in vivo, Zea mays
Summary of the method: (§1)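 Herbicidal effect was estimated by eye on a ten-point control scale after plants spent twelve to sixteen days in a greenhouse following soil or foliar treatment. Foliar sprays targeted plants at one to four leaves; all doses were formulated in a non-phytotoxic solvent with surfactant.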

giant foxtail = experiment: Test B pre/postemergence giant foxtail; type: in vivo, Setaria faberii
Summary of the method: as §1

blackgrass = experiment: Test B pre/postemergence blackgrass; type: in vivo, Alopecurus myosuroides
Summary of the method: as §1

crabgrass = experiment: Test B pre/postemergence crabgrass; type: in vivo, Digitaria sanguinalis
Summary of the method: as §1

surinam grass = experiment: Test B pre/postemergence surinam grass; type: in vivo, Brachiaria decumbens
Summary of the method: as §1

smallflower flatsedge = experiment: Test B flood test smallflower flatsedge; type: in vivo, Cyperus difformis
Summary of the method: (§2)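 Flood test on plants grown to the 2-leaf stage; treated plants kept in greenhouse twelve to sixteen days, then visually rated against controls on a 0 (no effect) to 10 (complete control) scale.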

cocklebur = experiment: Test B pre/postemergence cocklebur; type: in vivo, Xanthium strumarium
Summary of the method: as §1

pigweed = experiment: Test B pre/postemergence pigweed; type: in vivo, Amaranthus retroflexus
Summary of the method: as §1

velvetleaf = experiment: Test B pre/postemergence velvetleaf; type: in vivo, Abutilon theophrasti
Summary of the method: as §1

duck salad = experiment: Test B flood test duck salad; type: in vivo, Heteranthera limosa
Summary of the method: as §2

purple nutsedge = experiment: Test B pre/postemergence purple nutsedge; type: in vivo, Cyperus rotundus
Summary of the method: as §1

sugar beet = experiment: Test B pre/postemergence sugar beet; type: in vivo, Beta vulgaris
Summary of the method: as §1

rape = experiment: Test B pre/postemergence rape; type: in vivo, Brassica napus
Summary of the method: as §1

rice = experiment: Test B flood test rice; type: in vivo, Oryza sativa
Summary of the method: as §2

morningglory = experiment: Test B pre/postemergence morningglory; type: in vivo, Ipomoea hederacea
Summary of the method: as §1

wheat = experiment: Test B pre/postemergence wheat; type: in vivo, Triticum aestivum
Summary of the method: as §1

[1] = Postemergence, Rate 62 g/ha, scale 0 to 10, 0 is no effect, 10 is complete control
[2] = Postemergence, Rate 250 g/ha, scale 0 to 10, 0 no effect, 10 complete control
[3] = Preemergence, Rate 62 g/ha, scale 0 to 10 (0 no effect, 10 complete control)
[4] = Preemergence, Rate 125 g/ha, scale 0 to 10 (0 no effect, 10 complete control)
[5] = Preemergence, Rate 250 g/ha, scale of 0 to 10 where 0 is no effect and 10 is complete control
[6] = Preemergence, Rate 500 g/ha, scale 0 (no effect) to 10 (complete control)
[7] = Rate 125 g/ha, Postemergence, scale 0 to 10, 0 no effect, 10 complete control
[8] = Rate 500 g/ha, Postemergence, scale 0 to 10, 0 no effect, 10 complete control
[9] = Rate 125 g/ha, Postemergence section (flood test species), scale 0 to 10, 0 no effect, 10 complete control
[10] = Rate 500 g/ha, listed under Postemergence (flood test species), scale 0 to 10, 0 no effect, 10 complete control
[11] = flood test, listed under Postemergence, Rate 250 g/ha, scale 0 to 10, 0 no effect, 10 complete control

`COc1cccc(C)c1-n1c(=O)on(C(=O)N(c2ccccc2)C(C)C)c1=O` [Compound 73] was tested, and the “Corn plant response rating” value (corn; [1]) was 0, the “Corn plant response rating” value (corn; [2]) was 0 and the “Corn plant response rating” value (corn; [3]) was 0. The “Plant response rating, Corn” value (corn; [4]) was 0, the “Plant response rating, Corn” value (corn; [5]) was 0 and the “Corn plant response rating” value (corn; [6]) was 0. For the same molecule, the “Corn plant response rating” value (corn; [7]) was 0, the “Corn plant response rating” value (corn; [8]) was 0 and the “Giant foxtail plant response rating” value (giant foxtail; [1]) was 0. The “Giant foxtail plant response rating” value (giant foxtail; [2]) was 2, the “Giant foxtail plant response rating” value (giant foxtail; [3]) was 2 and the “Plant response rating, Giant foxtail” value (giant foxtail; [4]) was 7. The “Plant response rating, Giant foxtail” value (giant foxtail; [5]) was 9, the “Giant foxtail plant response rating” value (giant foxtail; [6]) was 10 and the “Giant foxtail plant response rating” value (giant foxtail; [7]) was 0. For the same molecule, the “Giant foxtail plant response rating” value (giant foxtail; [8]) was 4, the “Blackgrass plant response rating” value (blackgrass; [1]) was 0 and the “Blackgrass plant response rating” value (blackgrass; [2]) was 0. The “Blackgrass plant response rating” value (blackgrass; [3]) was 0, the “Plant response rating, Blackgrass” value (blackgrass; [4]) was 0 and the “Plant response rating, Blackgrass” value (blackgrass; [5]) was 0. For the same molecule, the “Blackgrass plant response rating” value (blackgrass; [6]) was 0, the “Blackgrass plant response rating” value (blackgrass; [7]) was 0 and the “Blackgrass plant response rating” value (blackgrass; [8]) was 2. For the same molecule, the “Crabgrass plant response rating” value (crabgrass; [1]) was 0, the “Crabgrass plant response rating” value (crabgrass; [2]) was 2 and the “Crabgrass plant response rating” value (crabgrass; [3]) was 1. The “Plant response rating, Crabgrass” value (crabgrass; [4]) was 5, the “Plant response rating, Crabgrass” value (crabgrass; [5]) was 8 and the “Crabgrass plant response rating” value (crabgrass; [6]) was 9. The “Crabgrass plant response rating” value (crabgrass; [7]) was 0, the “Crabgrass plant response rating” value (crabgrass; [8]) was 6 and the “B. signalgrass plant response rating” value (surinam grass; [1]) was 0. The “B. signalgrass plant response rating” value (surinam grass; [2]) was 0, the “B. signalgrass plant response rating” value (surinam grass; [3]) was 0 and the “Plant response rating, B. signalgrass” value (surinam grass; [4]) was 0. For the same molecule, the “Plant response rating, B. signalgrass” value (surinam grass; [5]) was 0, the “B. signalgrass plant response rating” value (surinam grass; [6]) was 0 and the “B. signalgrass plant response rating” value (surinam grass; [7]) was 0. The “B. signalgrass plant response rating” value (surinam grass; Rate 500 g/ha, Postemergence, scale of 0 to 10 where 0 is no effect and 10 is complete control) was 3, the “S. Flatsedge plant response rating” value (smallflower flatsedge; [1]) was 0 and the “S. Flatsedge plant response rating” value (smallflower flatsedge; [9]) was 0. For the same molecule, the “S. Flatsedge plant response rating” value (smallflower flatsedge; [10]) was 0, the “S. Flatsedge plant response rating” value (smallflower flatsedge; [11]) was 0 and the “Cocklebur plant response rating” value (cocklebur; [1]) was 0. For the same molecule, the “Cocklebur plant response rating” value (cocklebur; [2]) was 0, the “Cocklebur plant response rating” value (cocklebur; [3]) was 0 and the “Plant response rating, Cocklebur” value (cocklebur; [4]) was 0. For the same molecule, the “Plant response rating, Cocklebur” value (cocklebur; [5]) was 0, the “Cocklebur plant response rating” value (cocklebur; [6]) was 0 and the “Cocklebur plant response rating” value (cocklebur; [7]) was 0. The “Cocklebur plant response rating” value (cocklebur; [8]) was 2, the “Redroot pigweed plant response rating” value (pigweed; [1]) was 0 and the “Redroot pigweed plant response rating” value (pigweed; [2]) was 0. For the same molecule, the “Redroot pigweed plant response rating” value (pigweed; [3]) was 0, the “Plant response rating, Redroot pigweed” value (pigweed; [4]) was 0 and the “Plant response rating, Redroot pigweed” value (pigweed; [5]) was 0. The “Redroot pigweed plant response rating” value (pigweed; [6]) was 0, the “Redroot pigweed plant response rating” value (pigweed; [7]) was 0 and the “Redroot pigweed plant response rating” value (pigweed; [8]) was 0. The “Velvetleaf plant response rating” value (velvetleaf; [1]) was 0, the “Velvetleaf plant response rating” value (velvetleaf; [2]) was 4 and the “Velvetleaf plant response rating” value (velvetleaf; [3]) was 0. For the same molecule, the “Plant response rating, Velvetleaf” value (velvetleaf; [4]) was 0, the “Plant response rating, Velvetleaf” value (velvetleaf; [5]) was 0 and the “Velvetleaf plant response rating” value (velvetleaf; [6]) was 0. The “Velvetleaf plant response rating” value (velvetleaf; [7]) was 3, the “Velvetleaf plant response rating” value (velvetleaf; [8]) was 5 and the “Ducksalad plant response rating” value (duck salad; [1]) was 0. For the same molecule, the “Ducksalad plant response rating” value (duck salad; [9]) was 0, the “Ducksalad plant response rating” value (duck salad; [10]) was 0 and the “Ducksalad plant response rating” value (duck salad; [11]) was 0. For the same molecule, the “Nutsedge plant response rating” value (purple nutsedge; [1]) was 0, the “Nutsedge plant response rating” value (purple nutsedge; [2]) was 0 and the “Nutsedge plant response rating” value (purple nutsedge; [3]) was 0. For the same molecule, the “Plant response rating, Nutsedge” value (purple nutsedge; [4]) was 0, the “Plant response rating, Nutsedge” value (purple nutsedge; [5]) was 0 and the “Nutsedge plant response rating” value (purple nutsedge; [6]) was 0. The “Nutsedge plant response rating” value (purple nutsedge; [7]) was 0, the “Nutsedge plant response rating” value (purple nutsedge; [8]) was 0 and the “Sugarbeets plant response rating” value (sugar beet; [1]) was 0. For the same molecule, the “Sugarbeets plant response rating” value (sugar beet; [2]) was 0, the “Sugarbeets plant response rating” value (sugar beet; [3]) was 0 and the “Plant response rating, Sugarbeets” value (sugar beet; [4]) was 0. The “Plant response rating, Sugarbeets” value (sugar beet; [5]) was 0, the “Sugarbeets plant response rating” value (sugar beet; [6]) was 0 and the “Sugarbeets plant response rating” value (sugar beet; [7]) was 0. The “Sugarbeets plant response rating” value (sugar beet; [8]) was 0, the “Rape plant response rating” value (rape; [1]) was 0 and the “Rape plant response rating” value (rape; [2]) was 0. For the same molecule, the “Rape plant response rating” value (rape; [3]) was 0, the “Plant response rating, Rape” value (rape; [4]) was 0 and the “Plant response rating, Rape” value (rape; [5]) was 0. The “Rape plant response rating” value (rape; [6]) was 0, the “Rape plant response rating” value (rape; [7]) was 0 and the “Rice plant response rating” value (rice; [1]) was 0. For the same molecule, the “Rice plant response rating” value (rice; [9]) was 0, the “Rice plant response rating” value (rice; [10]) was 0 and the “Rice plant response rating” value (rice; [11]) was 0. For the same molecule, the “Morningglory plant response rating” value (morningglory; [1]) was 3, the “Morningglory plant response rating” value (morningglory; [2]) was 4 and the “Morningglory plant response rating” value (morningglory; [3]) was 0. For the same molecule, the “Plant response rating, Morningglory” value (morningglory; [4]) was 0, the “Plant response rating, Morningglory” value (morningglory; [5]) was 0 and the “Morningglory plant response rating” value (morningglory; [6]) was 0. For the same molecule, the “Morningglory plant response rating” value (morningglory; [7]) was 3, the “Morningglory plant response rating” value (morningglory; [8]) was 4 and the “Wheat plant response rating” value (wheat; [1]) was 0. The “Wheat plant response rating” value (wheat; [2]) was 0, the “Wheat plant response rating” value (wheat; [3]) was 0 and the “Plant response rating, Wheat” value (wheat; [4]) was 0. For the same molecule, the “Plant response rating, Wheat” value (wheat; [5]) was 0, the “Wheat plant response rating” value (wheat; [6]) was 0 and the “Wheat plant response rating” value (wheat; [7]) was 0. For the same molecule, the “Wheat plant response rating” value (wheat; [8]) was 2.
